Entries after “also recorded” stand apart in the source; their conditions may differ.
Tested on: 27-mer RNA/DNA chimeric corresponding to the 16S rRNA A site
Assay: ESI-MS and CID/CAD MS-MS protection assay on chimeric 27-mer RNA/DNA (ion trap)
Type: binding, prokaryotic
Procedure: In order to study the structure of the 27-mer RNA corresponding to the 16S rRNA A site, of sequence 5′-GGC-GUC-ACA-CCU-UCG-GGU-GAA-GUC-GCC-3′ (SEQ ID NO:1) a chimeric RNA/DNA molecule that incorporates three deoxyadenosine (dA) residues at positions 7, 20 and 21 was prepared using standard nucleic acid synthesis protocols on an automated synthesizer. This chimeric nucleic acid of sequence 5′-GGC-GUC-dACA-CCU-UCG-GGU-GdAdA-GUC-GCC-3′ (SEQ ID NO:2) was injected as a solution in water into an electrospray mass spectrometer. […] These fragments correspond to the w7^(2−), w8^(2−) and the a7-B^(2−) fragments respectively, that are formed by cleavage of the chimeric nucleic acid adjacent to each of the incorporated dA residues. […]
Next, another sample of the chimeric nucleic acid was treated with a solution of paromomycin and the resulting mixture analyzed by ESI followed by CID using a mass spectrometer. […]
1 mL (0.6 O.D.) of a solution of a 27-mer RNA containing 3 dA residues (from Example 1) was diluted into 500 μL of 1:1 isopropanol:water and adjusted to provide a solution that was 150 mM in ammonium acetate, pH 7.4 and wherein the RNA concentration was […]. […] This mixture was then subjected to ESI-MS and the ionization of the nucleic acid and its complex monitored in the mass spectrum. […]

NC[C@@H]1O[C@H](O[C@H]2[C@@H](O)[C@H](O[C@@H]3[C@@H](O)[C@H](N)C[C@H](N)[C@H]3O[C@H]3O[C@H](CO)[C@@H](O)[C@H](O)[C@H]3N)O[C@@H]2CO)[C@H](N)[C@@H](O)[C@@H]1O [paromomycin]
fragmentation at dA sites of the complex under CID/CAD (protection of binding site) (same activation energy as free RNA): no fragmentation at the dA sites; also recorded: No cleavage was found to occur; also recorded: No significant fragment ions; also recorded: No fragment ions are detected
complex formation / binding strength with chimeric 27-mer (in words) (target 10 mM as printed, paromomycin and library members ~150 nM): only a 1:1 complex
